# Several values for one entry are separate records, joined by “and”; a condition that tells them apart may be missing. Identical values can stand only once.
# Columns and labels:
# [1] = test system: scopolamine-induced hyperactivity (muscarinic M1-mediated effect); assay: Reduction of scopolamine-induced hyperactivity (locomotor activity chambers); type: in vivo, rat
# Method: The motor activity chambers utilize infrared detectors to assess movement in 3 axes. Total activity measures (vertical+horizontal activity) were collected in 15 minute intervals for 1 hour post-injection. Total activity measures were cumulated across all time intervals for statistical analysis.
# [2] = test system: memory loss; settings: cited from earlier work
# [3] = test system: male Sprague-Dawley (Charles River) rats; assay: Radial arm maze test, scopolamine impairment; type: in vivo, rat; settings: for scopolamine impairment in delay, current and total errors / time compared to scopolamine / delay, current and total errors versus vehicle / time measures versus vehicle: first experiment (Table 2); for scopolamine impairment in delay, current and total errors / time compared to scopolamine: versus scopolamine
# Text: The compound of Example 1 was also studied in the radial arm maze test where male Sprague-Dawley (Charles River) rats on a 23-hour food deprivation schedule were trained in an eight arm radial maze with all arms baited. Each session consisted of two maze exposures, with a time limit of 500 seconds for each exposure. After four correct choices (first exposure), each animal was removed from the maze for one hour then returned with only the remaining four arms baited (second exposure). Choice errors, consisting of delay errors (re-entry into any of the four arms chosen during the first exposure) and current errors (re-entry into any of the four arms chosen during the second exposure), as well as total errors were recorded. Durations for each exposure were also recorded. Statistical analysis were preformed using a One-Way Anova with Dunnetts T-Test comparisons.
# All compounds were solubilized in distilled water.
# [4] = test system: Alzheimer's patients and healthy elderly patients; settings: cited from earlier work; for clinical efficacy: due to side-effects, short duration of action, narrow active dose range
# [5] = biological target: T1, M1 muscarinic receptor (Rattus norvegicus, UniProt P08482); assay: [3H]-Pirenzepine M1 receptor binding, rat brain tissue; settings: for IC50: [3H]pirenzepine, rat brain tissue; for M2/M1: ratio of M2 IC50 to M1 IC50
# T1 construct: from tissue; host or cells: rat brain tissue
# T1 sequence (P08482 1-460): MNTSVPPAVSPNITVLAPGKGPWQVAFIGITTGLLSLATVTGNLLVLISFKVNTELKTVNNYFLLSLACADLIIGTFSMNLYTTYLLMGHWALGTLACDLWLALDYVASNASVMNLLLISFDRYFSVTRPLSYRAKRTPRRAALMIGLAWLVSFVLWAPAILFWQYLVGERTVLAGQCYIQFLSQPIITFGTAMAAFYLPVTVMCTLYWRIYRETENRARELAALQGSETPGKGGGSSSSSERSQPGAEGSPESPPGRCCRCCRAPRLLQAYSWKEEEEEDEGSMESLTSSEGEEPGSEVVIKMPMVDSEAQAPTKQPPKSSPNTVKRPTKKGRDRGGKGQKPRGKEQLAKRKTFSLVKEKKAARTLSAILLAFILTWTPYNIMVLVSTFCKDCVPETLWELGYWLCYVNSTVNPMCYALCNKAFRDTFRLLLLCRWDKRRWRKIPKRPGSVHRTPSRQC
# [6] = biological target: T2, M2 receptor (Rattus norvegicus, UniProt P10980); assay: biochemical; type: binding; settings: read-out: [3H]QNB M2 IC50
# T2 sequence (P10980 1-466): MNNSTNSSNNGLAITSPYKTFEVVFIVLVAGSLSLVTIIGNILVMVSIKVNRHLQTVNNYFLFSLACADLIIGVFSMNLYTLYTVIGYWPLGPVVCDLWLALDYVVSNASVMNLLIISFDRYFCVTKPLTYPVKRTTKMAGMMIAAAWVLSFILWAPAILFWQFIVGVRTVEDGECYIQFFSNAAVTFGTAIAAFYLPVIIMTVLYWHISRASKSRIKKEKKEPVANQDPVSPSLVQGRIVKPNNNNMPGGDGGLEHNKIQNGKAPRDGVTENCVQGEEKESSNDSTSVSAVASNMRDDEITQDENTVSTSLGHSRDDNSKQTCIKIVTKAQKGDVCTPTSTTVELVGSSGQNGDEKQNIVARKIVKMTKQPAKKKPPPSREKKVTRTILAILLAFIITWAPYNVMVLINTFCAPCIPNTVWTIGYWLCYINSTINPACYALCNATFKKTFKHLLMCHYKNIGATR
# [7] = Table 2, arecoline 10.0 mg/kg i.p., scopolamine-impaired
# [8] = Table 3, 1.0 mg/kg i.p. + scopolamine HBr 0.3 mg/kg s.c.
# [9] = Table 3, 3.0 mg/kg i.p. + scopolamine HBr 0.3 mg/kg s.c.
# [10] = Table 3, 10.0 mg/kg i.p. + scopolamine HBr 0.3 mg/kg s.c.
# [11] = Table 2, physostigmine 0.01 mg/kg i.p., scopolamine-impaired
# [12] = Table 2, scopolamine HBr 0.3 mg/kg s.c. alone
# [13] = Table 3, scopolamine HBr 0.3 mg/kg s.c. alone
molecule,measurement,setting,value
"COC(=O)C1=CCCN(C)C1 [Arecoline, arecoline]",dose active in scopolamine-induced hyperactivity test,[1]; route not stated,about 5.4 mg/kg
same,"reversal of muscarinic antagonist-induced memory deficit, rats",[2]; rats,can be reversed
same,"Mean Errors, Current",[3]; [7],0.75
same,"Mean Errors, Delay",[3]; [7],1.50
same,"Mean Errors, Total",[3]; [7],2.25
same,"Mean Time, Current",[3]; [7],2.32 min
same,"Mean Time, Delay",[3]; [7],1.50 min
same,"Mean Time, Total",[3]; [7],4.06 min
same,"scopolamine impairment in delay, current and total errors",[3],"significant reduction in scopolamine impairment in delay, current and total errors"
same,time compared to scopolamine,[3],no significant time reduction versus scopolamine
same,"delay, current and total errors versus vehicle",[3],did not
same,time measures versus vehicle,[3],significant time increase versus vehicle
same,clinical efficacy,[4],neither physostigmine nor arecoline have clinical efficacy
"CCN(CC)CCCNc1nnc(C)c2c1cc1ccccn12 [Example 1, 1-[(3'-Diethylaminopropyl)amino]-4-methylpyridazino[4,5-b]indolizine]",total activity versus vehicle-only controls,"[1]; 30 and 54 mg/kg i.p., scopolamine 1.7 mg/kg s.c.",did not differ from vehicle-only controls
same,dose active in reducing scopolamine-induced hyperactivity,"[1]; i.p., scopolamine 1.7 mg/kg s.c., rats",30 mg/kg and 54 mg/kg
same,IC50,[5],0.098 µM
same,M2/M1,[5],42
same,IC50,[6],4.1 µM
same,total time compared to scopolamine,"[3]; 1.0 mg/kg i.p., Table 3",reduction in time impairment compared to scopolamine
same,delay time (first exposure) versus vehicle,"[3]; 3.0 mg/kg i.p., Table 3",significantly increased
same,"current and total errors, dose trend","[3]; 1, 3, 10 mg/kg i.p., Table 3",definite dose-related decrease in scopolamine impairment
same,"delay errors, dose trend","[3]; 1, 3, 10 mg/kg i.p., Table 3",no dose-related trend
same,total time versus vehicle,"[3]; 3.0 and 10 mg/kg i.p., Table 3",significantly increased
same,"Mean Errors, Current",[3]; [8],2.00
same,"Mean Errors, Delay",[3]; [8],1.83
same,"Mean Errors, Total",[3]; [8],3.67
same,"Mean Time, Current",[3]; [8],1.83 min
same,"Mean Time, Delay",[3]; [8],1.03 min
same,"Mean Time, Total",[3]; [8],2.99 min
same,"Mean Errors, Current",[3]; [9],1.13
same,"Mean Errors, Delay",[3]; [9],2.38
same,"Mean Errors, Total",[3]; [9],3.50
same,"Mean Time, Current",[3]; [9],2.92 min
same,"Mean Time, Delay",[3]; [9],1.95 min
same,"Mean Time, Total",[3]; [9],4.96 min
same,"Mean Errors, Current",[3]; [10],0.75
same,"Mean Errors, Delay",[3]; [10],2.00
same,"Mean Errors, Total",[3]; [10],2.75
same,"Mean Time, Current",[3]; [10],3.32 min
same,"Mean Time, Delay",[3]; [10],1.63 min
same,"Mean Time, Total",[3]; [10],5.15 min
same,impairment caused by scopolamine,"[3]; all doses tested (1, 3, 10 mg/kg i.p.), Table 3",reduced the impairment caused by scopolamine
same,current time (second exposure) versus vehicle,"[3]; all groups, Table 3",significantly increased
same,cognitive impairment due to cholinergic hypofunction,[3]; overall conclusion,can reduce cognitive impairment
Cc1nnc(NCCN(C)C)c2cc3ccccn3c12 [Example 2],IC50,[5],0.66 µM
same,M2/M1,[5],18
same,IC50,[6],12 µM
"Cc1nnc(NCCCN(C)C)c2cc3ccccn3c12 [Example 3, N,N-Dimethyl-N'-(4-methylpyridazino[4,5-b]indolizin-1-yl)-1,3-propanediamine]",IC50,[5],0.6 µM
same,M2/M1,[5],24
same,IC50,[6],9.5 µM
"Cc1nnc(NCCN2CCOCC2)c2cc3ccccn3c12 [Example 4, N-[2-(4-Morpholinyl)ethyl]-4-methylpyridazino[4,5-b]indolizin-1-amine]",IC50,[5],2.45 µM
same,M2/M1,[5],8
same,IC50,[6],19 µM
"Cc1nnc(NCCCN2CCOCC2)c2cc3ccccn3c12 [Example 5, N-[3-(4-Morpholinyl)propyl]-4-methylpyridazino[4,5-b]indolizin-1-amine]",IC50,[5],0.27 µM
same,M2/M1,[5],44
same,IC50,[6],12 µM
"CCN1CCCC1CNc1nnc(C)c2c1cc1ccccn12 (stereo not drawn) [Example 6, N-[(1-Ethyl-2-pyrrolidinyl)methyl]-4-methylpyridazino[4,5-b]-indolizin-1-amine]",IC50,[5],0.26 µM
same,M2/M1,[5],24
same,IC50,[6],6.2 µM
"Cc1nnc(N2CCN(C)CC2)c2cc3ccccn3c12 [Example 7, 4-Methyl-1-(4'-methylpiperazinyl)pyridazino[4,5-b]indolizine]",IC50,[5],1 µM
same,M2/M1,[5],29
same,IC50,[6],29 µM
"Cc1nnc(NCCCN2CCCCC2)c2cc3ccccn3c12 [Example 8, 4-Methyl-N-[3-(1-piperidinyl)propyl]pyridazino[4,5-b]indolizin-1-amine]",IC50,[5],0.11 µM
same,M2/M1,[5],13
same,IC50,[6],1.4 µM
"Cc1nnc(NCCCN2CCN(C)CC2)c2cc3ccccn3c12 [Example 9, 4-Methyl-N-[4'-methyl(1-piperazinyl)propyl]pyridazino[4,5-b]indolizin-1-amine]",IC50,[5],0.15 µM
same,M2/M1,[5],19
same,IC50,[6],2.8 µM
"Cc1nnc(NCCCCN2CCN(C)CC2)c2cc3ccccn3c12 [Example 10, 4-Methyl-N-[4'-methyl(1-piperazinyl)butyl]pyridazino[4,5-b]indolizin-1-amine]",IC50,[5],0.14 µM
same,M2/M1,[5],25
same,IC50,[6],3.5 µM
"CNC(=O)Oc1ccc2c(c1)[C@]1(C)CCN(C)[C@@H]1N2C [Physostigmine, physostigmine]","reversal of muscarinic antagonist-induced memory deficit, humans and monkeys",[2]; humans and monkeys,can be reversed
same,"Mean Errors, Current",[3]; [11],0.88
same,"Mean Errors, Delay",[3]; [11],1.13
same,"Mean Errors, Total",[3]; [11],2.00
same,"Mean Time, Current",[3]; [11],2.01 min
same,"Mean Time, Delay",[3]; [11],1.14 min
same,"Mean Time, Total",[3]; [11],3.25 min
same,"scopolamine impairment in delay, current and total errors",[3],"significant reduction in scopolamine impairment in delay, current and total errors"
same,time compared to scopolamine,[3],significant time reduction compared to scopolamine in both delay time (first exposure) and total time
same,"delay, current and total errors versus vehicle",[3],did not
same,clinical efficacy,[4],neither physostigmine nor arecoline have clinical efficacy
"CN1[C@@H]2C[C@@H](OC(=O)[C@H](CO)c3ccccc3)C[C@H]1[C@@H]1O[C@@H]12 [Scopolamine, scopolamine]",total activity measure,[1]; scopolamine 1.7 mg/kg s.c. alone,significant increase
same,memory loss induced,"[2]; normal humans and animals (cat, rat, monkey)",Memory loss
same,"Mean Errors, Current",[3]; [12],3.63
same,"Mean Errors, Total",[3]; [12],6.38
same,"Mean Time, Current",[3]; [12],2.78 min
same,"Mean Time, Delay",[3]; [12],2.28 min
same,"Mean Time, Total",[3]; [12],5.27 min
same,"Mean Errors, Current",[3]; [13],3.57
same,"Mean Errors, Total",[3]; [13],5.72
same,"Mean Time, Current",[3]; [13],2.90 min
same,"Mean Time, Delay",[3]; [13],2.01 min
same,"Mean Time, Total",[3]; [13],5.14 min
same,"delay, current and total errors versus vehicle",[3],"significant increase in delay, current and total errors versus vehicle"
same,time measures versus vehicle,[3],increased all time measures compared to vehicle
same,total errors compared to vehicle,[3]; second experiment (Table 3),significantly increased total errors compared to vehicle
same,time measures compared to vehicle,"[3]; second experiment (Table 3), scopolamine alone",increased all time measures compared to vehicle
lecithin,improvement on cognitive tests,[4]; Alzheimer's patients and healthy elderly patients,No significant improvement
